In article PMC12362582, “Linker Methylation as a Strategy to Enhance PROTAC Oral Bioavailability: Insights from Molecular Properties and Conformational Analysis” (Journal of Medicinal Chemistry, 2025):

How the values were obtained:
[1] = In vivo pharmacokinetics in mice (oral bioavailability, clearance); details: for bioavailability: female, BomTac:NMRI-Foxn1nu, mouse, plasma, mice, AUC_DN oral (typically 30 mg/kg) / AUC_DN IV (5 mg/kg) * 100, read-out: F% (oral bioavailability in mice); for Mouse CL (% Qh): mouse clearance as % of hepatic blood flow
Method: Bioavailability in mice was determined by comparing plasma exposure after oral administration with plasma exposure after intravenous administration (see Experimental Part). The investigated data set includes PROTACs with very low (F < 1%), low (F < 5%) and medium/high (F > 5%, in bold in Table ) oral bioavailability. Only low-clearance PROTACs were investigated, with clearance of less than 10% of the hepatic blood flow, to avoid extensive hepatic first-pass effect (Mouse CL see Table S2).
The authors confirm that the research in this study complies with all relevant ethical regulations. All animal studies were approved by the internal ethics committee (called “ethics committee”) of Boehringer Ingelheim RCV GmbH & Co KG in the department of Cancer Pharmacology and Disease Positioning. Furthermore, all protocols were approved by the Austrian governmental committee (MA 60 Veterinary office; approval numbers GZ: 903122/2017/21, GZ: 154399/2018/16, GZ: MA 58–670393–2019–18, GZ: MA 58–546776–2022–13). Female BomTac:NMRI-Foxn1nu mice were obtained from Taconic Denmark at an age of 6–8 weeks. After arrival at the local AAALAC accredited animal facility at Boehringer Ingelheim RCV GmbH & Co KG mice were allowed to adjust to housing conditions for at least 5 days before the start of the experiment, i.e. mice in all experiments were 7–9 weeks old. Mice were group-housed under pathogen-free and controlled environmental conditions (21 ± 1.5 °C temperature, 55 ± 10% humidity) and handled according to the institutional, governmental and European Union guidelines (Austrian Animal Protection Laws, GV SOLAS and FELASA). Animal studies were approved as described in the Ethics section. Food and water were provided ad libitum.
All pharmacokinetic studies were conducted with three mice per dose group and testing route. Oral bioavailability was determined by comparing the dose-normalized area under the plasma concentration–time curve (AUC_DN) following oral administration to the AUC_DN after intravenous (IV) administration of the same drug. All oral administrations were conducted with a volume of application of 10 mL/kg, typically at a dose of 30 mg/kg as a solution in a 25% to 40% HP-β-CD at a pH range of 4 to 5. Intravenous administrations were conducted at a dose of 5 mg/kg, with a volume of application of 5 mL/kg in 25% HP-β-CD at a pH of 5. Blood samples were obtained from the vena saphena at five time points after each administration, with the aim of measuring the drug concentration in the plasma. The concentrations of the compound in plasma samples were determined by quantitative HPLC-MS/MS, employing an internal standard. Calibration and quality control samples were prepared using blank plasma from untreated animals. The samples were precipitated with acetonitrile and subsequently injected into an HPLC system (Agilent 1200). The separation was conducted using a gradient of 5 mmol/L ammonium acetate at pH 4.0 and acetonitrile with 0.1% formic acid on a 2.1 mm by 50 mm XBridge BEH C18 reversed-phase column with 2.5 μm particles (Waters). The HPLC was interfaced with an ESI-operated triple quadrupole mass spectrometer (5000 or 6500+ Triple Quad System, SCIEX) operated in multiple reaction monitoring mode. The chromatograms were analyzed using Analyst (SCIEX), and the pharmacokinetic parameters, such as AUC_DN, were calculated using noncompartmental analysis with BI-proprietary software.
The oral bioavailability (F%) was calculated using the following formula: F% = AUC_DN_oral/AUC_DN_IV) * 100.

[2] = BRlogD chromatographic lipophilicity (XBridge Shield RP18); type: physicochemical; details: XBridge Shield RP18 HPLC column (130 Å, 5 µm, 5 cm × 4.6 mm); 60% ACN / 40% 20 mM ammonium acetate, pH 7
Method: Lipophilicity was assessed using three chromatographic descriptors, each simulating distinct aspects of membrane environments. BRlogD is a surrogate of the octanol/water distribution coefficient (log D oct) reflecting a general partitioning across biological membranes. Log k W ^IAM implements an Immobilized Artificial Membrane (IAM) column which provides a lipophilicity index in an environment resembling the membrane phospholipids. Finally, log k′80 PLRP-S reflects retention in a hydrophobic polymeric column environment, mimicking the nonpolar core of lipid bilayers, and acts as a surrogate for the toluene/water partition coefficient (log D tol). Lipophilicity remained within a moderate range across all systems.
All chromatographic measurements were performed using the Thermo Scientific Inc. HPLC DIONEX Ultimate 3000 connected to an RS diode array and the Chromeleon 7.2.10 software (www.thermofisher.com). 1.5 mL HPLC vials, 9 mm PP screw caps, and high-performance ergonomic single-channel variable volume pipettors from VWR Signature were used. A Eutech pH Meter 2700 was used to regulate the pH of each buffer and sample (www.fishersci.com). For all the chromatographic descriptors, the mobile phase consisted of an acetonitrile solution (ACN) and 20 mM AAB, pH 7. Moreover, 10 μL was set as the volume of injection of compound concentrations ranging from 50 to 100 μg/mL in ACN/buffer mixtures. One mL/min was chosen as the isocratic flow rate and 30 °C as the oven temperature. However, each chromatographic system (RP) had its own conditions:
BRlogD as an analog of log Poct required the use of the XBridge Shield RP18 (130 Å, 5 μm, 5 cm × 4.6 mm) column by Waters (www.waters.com). The eluent was composed of a 60% ACN and 40% 20 mM ammonium acetate buffer (v/v) mixture. The retention time was measured for the analyte and the log k′60 was calculated (capacity factor k′60 = [t R (60% ACN) – t 0]/t 0) and then converted to the corresponding BRlogD value using the equation BRlogD = 3.31x + 2.79. In addition, acetone, caffeine, ibuprofen, lidocaine, phenol, and a mixture of uracile, acetophenone, and toluene were used as gold standards.

[3] = EPSA (supercritical fluid chromatography) and EPSA-to-TPSA ratio; type: physicochemical; details: for EPSA: supercritical fluid chromatographic (SFC) system, SFC-based polarity descriptor
Text: Polarity was quantified by Δlog k W ^IAM, a descriptor obtained from the experimental log k W ^IAM and BRlogD. In addition, we also measured EPSA (Table S2), another polarity descriptor based on a supercritical fluid chromatographic (SFC) system widely used in drug discovery.
Chameleonicity was monitored by Chamelogk, a recent chromatographic descriptor able to capture environment-dependent conformational changes by monitoring different mobile phase compositions on the PLRP-S column. All PROTACs behave as strong chameleons (Chamelogk > 0.6). Additionally, we calculated the EPSA-to-TPSA ratio (ETR), a recently proposed index for polarity masking. The ETR values remained consistently around 0.7 across the series, supporting the notion that conformational effects contribute uniformly to the polarity profiles of the analyzed PROTACs.

| SMILES | bioavailability [1] [%] | Mouse CL (% Qh) [1] [% Qh] | chromatographic logD [2] | EPSA [3] [A^2] | ETR (EPSA-to-TPSA ratio) [3] |
| --- | --- | --- | --- | --- | --- |
| Cc1ncsc1-c1ccc([C@H](CCCN2CCC(c3ccc4c(c3)n(C3CCCC3)c3nc(=O)c5c(Br)cccc5n43)CC2)NC(=O)[C@@H]2C[C@@H](O)CN2C(=O)[C@@H](NC(=O)C2(F)CC2)C(C)(C)C)cc1 [A3-1] | 0.6 | 7.9 | 2.29 | 133 |  |
| Cc1ncsc1-c1ccc([C@H](C[C@H](C)CN2CCC(c3ccc4c(c3)n(C3CCCC3)c3nc(=O)c5c(Br)cccc5n43)CC2)NC(=O)[C@@H]2C[C@@H](O)CN2C(=O)[C@@H](NC(=O)C2(F)CC2)C(C)(C)C)cc1 [A3-2] | 5.4 | 3.6 | 3.29 | 130 | 0.68 |
| Cc1ncsc1-c1ccc([C@H](C[C@@H](C)CN2CCC(c3ccc4c(c3)n(C3CCCC3)c3nc(=O)c5c(Br)cccc5n43)CC2)NC(=O)[C@@H]2C[C@@H](O)CN2C(=O)[C@@H](NC(=O)C2(F)CC2)C(C)(C)C)cc1 [A3-3] | 16.4 | 9.3 | 3.32 | 130 | 0.70 |
| Cc1ncsc1-c1ccc([C@H](CCCCCN2CCC(c3ccc4c(c3)n(C3CCCC3)c3nc(=O)c5c(Br)cccc5n43)CC2)NC(=O)[C@@H]2C[C@@H](O)CN2C(=O)[C@@H](NC(=O)C2(F)CC2)C(C)(C)C)cc1 [A5-1] | 4.3 | 2.5 | 2.46 | 136 | 0.75 |
| Cc1ncsc1-c1ccc([C@H](CC[C@H](C)CCN2CCC(c3ccc4c(c3)n(C3CCCC3)c3nc(=O)c5c(Br)cccc5n43)CC2)NC(=O)[C@@H]2C[C@@H](O)CN2C(=O)[C@@H](NC(=O)C2(F)CC2)C(C)(C)C)cc1 [A5-2] | 22.1 | 2.3 | 2.76 | 133 | 0.73 |
| Cc1ncsc1-c1ccc([C@H](CC[C@@H](C)CCN2CCC(c3ccc4c(c3)n(C3CCCC3)c3nc(=O)c5c(Br)cccc5n43)CC2)NC(=O)[C@@H]2C[C@@H](O)CN2C(=O)[C@@H](NC(=O)C2(F)CC2)C(C)(C)C)cc1 [A5-3] | 31.5 | 3.9 | 2.8 | 133 | 0.73 |
| Cc1ncsc1-c1ccc([C@@H](CC[C@@H](C)CCN2CCC(c3ccc4c(c3)n(C3CCCC3)c3nc(=O)c5c(Br)cccc5n43)CC2)NC(=O)[C@@H]2C[C@@H](O)CN2C(=O)[C@@H](NC(=O)C2(F)CC2)C(C)(C)C)cc1 [A5-4] | 1.2 | 2.8 | 2.76 | 134 | 0.73 |
| Cc1ncsc1-c1ccc([C@H](COCCN2CCC(c3ccc4c(c3)n(C3CCCC3)c3nc(=O)c5c(Br)cccc5n43)CC2)NC(=O)[C@@H]2C[C@@H](O)CN2C(=O)[C@@H](NC(=O)C2(F)CC2)C(C)(C)C)cc1 [B-1] | 0.9 | 8.5 | 2.64 | 128 | 0.69 |
| Cc1ncsc1-c1ccc([C@H](CO[C@H](C)CN2CCC(c3ccc4c(c3)n(C3CCCC3)c3nc(=O)c5c(Br)cccc5n43)CC2)NC(=O)[C@@H]2C[C@@H](O)CN2C(=O)[C@@H](NC(=O)C2(F)CC2)C(C)(C)C)cc1 [B-2] | 1.7 | 5.4 | 2.64 |  | 0.68 |
| Cc1ncsc1-c1ccc([C@H](CO[C@@H](C)CN2CCC(c3ccc4c(c3)n(C3CCCC3)c3nc(=O)c5c(Br)cccc5n43)CC2)NC(=O)[C@@H]2C[C@@H](O)CN2C(=O)[C@@H](NC(=O)C2(F)CC2)C(C)(C)C)cc1 [B-3] | 2.3 | 7.1 | 2.58 | 124 | 0.68 |
| Cc1ncsc1-c1ccc([C@H](COC(C)(C)CN2CCC(c3ccc4c(c3)n(C3CCCC3)c3nc(=O)c5c(Br)cccc5n43)CC2)NC(=O)[C@@H]2C[C@@H](O)CN2C(=O)[C@@H](NC(=O)C2(F)CC2)C(C)(C)C)cc1 [B-4] | 90.9 | 6.0 | 3.25 | 127 | 0.67 |
